Reference: article PMC12797170, “Potent Competitive Inhibitors of Ecto-5′-nucleotidase (CD73) based on 6‑(Het)aryl-7-deazapurine Ribonucleoside 5′‑O‑Bisphosphonates” (ACS Pharmacology & Translational Science, 2025)
In brackets after ≈: the same amount, converted by molar mass. Read-outs that look alike come from different tables or passages of the source.

Experiments:
[1] = Plasma protein binding, equilibrium dialysis, human plasma; type: in vitro ADME; conditions: undiluted plasma
[2] = Plasma stability assay, human plasma
[3] = Plasma protein binding, mouse plasma; type: in vitro ADME
[4] = Plasma stability assay, mouse plasma
HL-60 = assay: In vitro cytotoxic activity; type: cell-based; conditions: Homo sapiens
Protocol: (§1) All the compounds were also tested for their in vitro cytotoxic activity on a small panel of four cancer cell lines (CCRF-CEM, HepG2, HeLa S3, HL-60) and nonmalignant human dermal fibroblasts (NHDF).

HepG2 = assay: In vitro cytotoxic activity; type: cell-based; conditions: Homo sapiens
Protocol: as §1

[5] = system: nonmalignant human dermal fibroblasts (NHDF); assay: In vitro cytotoxic activity; type: cell-based
Protocol: as §1

HeLa S3 = assay: In vitro cytotoxic activity; type: cell-based; conditions: Homo sapiens
Protocol: as §1

CCRF-CEM = assay: In vitro cytotoxic activity; type: cell-based; conditions: Homo sapiens
Protocol: as §1

[6] = Kinetic solubility in PBS; type: physicochemical; conditions: phosphate-buffered saline, pH 7.4, aqueous buffer, kinetic from dmso stock
In short: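 DMSO stocks diluted into PBS pH 7.4 to 100 μM and shaken 2 h at room temperature in duplicate, then filtered by centrifugation. Filtrates diluted 1:99 in 50% acetonitrile. Quantified by Echo-MS against calibration standards spanning 0.05–4 μM.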

[7] = target: T1, recombinant human CD73 (hCD73) (Homo sapiens, UniProt P21589); assay: CD73 activity assay on recombinant human CD73; type: biochemical; conditions: ΔGexp = RT ln Ki
T1 sequence (P21589 27-574): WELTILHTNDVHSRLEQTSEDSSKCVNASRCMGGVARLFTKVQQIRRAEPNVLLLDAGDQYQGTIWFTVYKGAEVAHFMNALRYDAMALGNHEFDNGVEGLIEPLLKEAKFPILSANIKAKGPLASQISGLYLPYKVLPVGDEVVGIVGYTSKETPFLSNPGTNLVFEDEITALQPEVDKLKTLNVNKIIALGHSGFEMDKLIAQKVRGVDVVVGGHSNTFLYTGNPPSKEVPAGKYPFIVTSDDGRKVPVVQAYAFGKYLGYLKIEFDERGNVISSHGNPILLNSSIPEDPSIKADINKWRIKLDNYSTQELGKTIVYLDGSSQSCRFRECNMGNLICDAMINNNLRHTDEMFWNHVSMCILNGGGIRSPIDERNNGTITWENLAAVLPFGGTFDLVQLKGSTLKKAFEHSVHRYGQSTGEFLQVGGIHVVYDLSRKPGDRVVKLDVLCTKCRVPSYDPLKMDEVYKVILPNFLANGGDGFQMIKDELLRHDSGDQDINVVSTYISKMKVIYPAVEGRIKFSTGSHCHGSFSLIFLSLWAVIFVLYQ

[8] = In vivo pharmacokinetic study, intravenous; set-up: species or system male CD-1 mice; conditions: for half-life: male, footnote: t1/2 stability in plasma, text: half-life in mouse PK
In short: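 Single intravenous dose in male CD-1 mice (n=3, 9 weeks, 29.2–33.7 g). Plasma levels measured by LC-MS/MS at 5, 15, 30, 60, 120, 240 and 480 min.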

[9] = Microsomal stability assay, mouse liver microsomes; type: in vitro ADME; conditions: for Mics (m) comp remaining 60 min: 10 μM; for microsomal CLint at 10 µM: pooled liver microsomes, pH 7.4, read-out: Mics (m) CLint
in vitro [10] = conditions: human, plasma
[11] = system: MDA-MB-231 breast cancer cell line; assay: CellTox Green cytotoxicity assay; type: cell-based, human; conditions: 24 h
Protocol: MDA-MB-231 cells were harvested and counted using an automated cell counter. A total of 2,500 cells per well were seeded in 20 μL of phenol red-free complete RPMI medium into black 384-well plates. Five μL of CD73 inhibitors (final concentration: […]) or 5 μL PBS (negative control) were added to each well, except for wells designed as maximal signal (dead cell) controls. Plates were incubated for 24 h at 37 °C in a humidified CO2 incubator. To generate the maximum signal control, 5 μL of lysis buffer (CellTox Green Cytotoxicity Assay, Promega) was added to the dead cell controls, followed by a 30 min incubation at room temperature. Subsequently, 25 μL/well of CellTox Green Dye (diluted 1:500 in the assay buffer; Promega) was added. Plates were incubated in the dark on an orbital shaker at 500–700 rpm for 15 min. Fluorescence was measured using an Infinite M1000 plate reader (Tecan) with excitation at 485–500 nm and emission at 520–530 nm. Data were analyzed in GraphPad Prism 10.
Figure S2: Effect of CD73 inhibition on the viability of CD73-expressing breast cancer cell line. MDA-MB-231 cells were incubated with 10 µM CD73 inhibitors for 24 hours. Viability was assessed using the CellTox™ Green Cytotoxicity Assay.
± s.d. of technical triplicates (s.d., standard deviation).
(1 picture or pasted object on this page, not shown here)

[12] = Microsomal stability assay, human liver microsomes; type: in vitro ADME; conditions: for Mics (hu) comp remaining 60 min: 10 μM; for microsomal CLint at 10 µM: pooled liver microsomes, pH 7.4, read-out: Mics (hu) CLint
in vitro [13] = conditions: mouse, plasma
[14] = human plasma protein binding, read-out: PPB (hu) (converted)
[15] = mouse, plasma, 1 mg/kg, male CD-1 mice, intravenous, single dose, read-out: Cl (obs), observed clearance
[16] = mouse, plasma, Tables 2 and 4, mouse plasma, read-out: fup, fraction unbound in mouse plasma
[17] = mouse, plasma, mouse plasma protein binding, read-out: PPB (m) (converted)
[18] = CD-1, mouse, plasma, iv, 1 mg/kg, intravenous

Compound	fraction unbound at 4 h, 100 µM [1, 14]	IC50 (HL-60) [µM]	IC50 (HepG2) [µM]	IC50 [5] [µM]	IC50 (HeLa S3) [µM]	IC50 (CCRF-CEM) [µM]	solubility at 2 h [6] [µM]	dG_exp, experimental binding free energy [7]	clearance [8, 15] [mL/min/kg]	Mics (m) comp remaining 60 min [9] [%]	microsomal CLint at 10 µM [9] [µL/min/mg]	half-life at 10 µM (in vitro [10]) [h]	fraction unbound at 4 h, 100 µM [3, 16]	fraction unbound at 4 h, 100 µM [3, 17]	Mics (hu) comp remaining 60 min [12] [%]	microsomal CLint at 10 µM [12] [µL/min/mg]	half-life [8, 18] [h]	half-life at 10 µM (in vitro [13]) [h]	also measured
O=P(O)(O)CP(=O)(O)OC[C@H]1O[C@@H](n2ccc3c(-c4cc5ccccc5c5ccccc45)ncnc32)[C@H](O)[C@@H]1O [4A.11]	0.013	> 10	> 10	> 10	> 10	> 10	68 (≈ 39.8 µg/mL)	–13.1 kcal/mol	2										fraction unbound at 4 h, 100 µM ([1]; Tables 1 and 3, human plasma as printed in footnote, read-out: fup, fraction unbound in human plasma): 0.31; half-life at 10 µM [2]: > 2 h; fraction unbound at 4 h, 100 µM ([3]; mouse plasma protein binding, read-out: PPB (m) (converted)): 0.222; half-life at 10 µM [4]: > 2 h; clearance ([8]; in vivo PK in mice, unit not given): moderate clearance; half-life ([8]; CD-1, 1 mg/kg, intravenous): 1.65 h
O=P(O)(O)CP(=O)(O)OC[C@H]1O[C@@H](n2ccc3c(-c4cccc5ccccc45)nc(Cl)nc32)[C@H](O)[C@@H]1O [7B.6]	0.034	2.9	> 10	> 10	> 10	> 10	92 (≈ 52.4 µg/mL)	–15.4 kcal/mol	0.73	94	2	> 2	0.27	0.274	96	1	2.1	> 2	in vitro cytotoxicity against MDA-MB-231 [11]: nontoxic
O=P(O)(O)CP(=O)(O)OC[C@H]1O[C@@H](n2ccc3c(-c4ccc5cc(Cl)ccc5c4)nc(Cl)nc32)[C@H](O)[C@@H]1O [7B.27]	≤ 0.01	> 10	> 10	> 10	> 10	> 10	89 (≈ 53.8 µg/mL)	–15.3 kcal/mol	6.7	140	< 2	> 2	0.04	0.036	148	< 2	2.43	> 2	
COC(=O)c1ccc2cc(-c3nc(Cl)nc4c3ccn4[C@@H]3O[C@H](COP(=O)(O)CP(=O)(O)O)[C@@H](O)[C@H]3O)ccc2c1 [7B.29]	≤ 0.01	> 10	> 10	> 10	> 10	> 10	85 (≈ 53.4 µg/mL)	–14.6 kcal/mol	7.2	112	< 2	> 2	0.23	0.234	132	< 2	0.138	> 2	
O=P(O)(O)CP(=O)(O)OC[C@H]1O[C@@H](n2ccc3c(-c4ccc5cc(O)ccc5c4)nc(Cl)nc32)[C@H](O)[C@@H]1O [7B.32]	0.084	> 10	> 10	> 10	> 10	> 10	> 100	–15.8 kcal/mol	11	111	< 2	> 2	0.2	0.198	104	< 2	0.113	> 2	
Nc1nc(-c2cccc3ccccc23)c2ccn([C@@H]3O[C@H](COP(=O)(O)CP(=O)(O)O)[C@@H](O)[C@H]3O)c2n1 [11C.6]	0.067	> 10	> 10	> 10	> 10	> 10	> 100	–13.9 kcal/mol	2.3	102	< 1	> 2	0.56	0.564	92	3	2.78	> 2	
O=P(O)(O)CP(=O)(O)OC[C@H]1O[C@@H](n2ccc3c(-c4cccc5ccccc45)nc(F)nc32)[C@H](O)[C@@H]1O [14D.6]	0.033	> 10	> 10	> 10	> 10	> 10	89 (≈ 49.3 µg/mL)	–14.4 kcal/mol	1.3	111	< 1	> 2	0.42		100	< 1	2.3	> 2	
O=P(O)(O)CP(=O)(O)OC[C@H]1O[C@@H](n2ccc3c(-c4cccc5c4CCCC5)nc(F)nc32)[C@H](O)[C@@H]1O [14D.12]	0.023	> 10	> 10	> 10	> 10	> 10	84 (≈ 46.8 µg/mL)	–15.1 kcal/mol	1.4	116	< 1	> 2	0.23	0.235	99	< 1	2.25	> 2	
Cc1nc(-c2cc3ccccc3o2)c2ccn([C@@H]3O[C@H](COP(=O)(O)CP(=O)(O)O)[C@@H](O)[C@H]3O)c2n1 [18E.8]	0.026	> 10	> 10	> 10	> 10	> 10	86 (≈ 46.4 µg/mL)	–14.7 kcal/mol	7.4	103	< 1	> 2	0.3	0.302	95	2	0.25	> 2	
